{"source": "patent US7323447B2", "about": "“Hepatitis C virus inhibitors” (Bristol-Myers Squibb Company, priority 2005, dated 2008)", "key": {"[1]": {"molecular_target": "T1, porcine pancreatic elastase (PPE) (Sus scrofa, UniProt P00772)", "T1 construct": "purchased Sigma or EMDbiosciences", "T1 sequence (P00772 27-266)": "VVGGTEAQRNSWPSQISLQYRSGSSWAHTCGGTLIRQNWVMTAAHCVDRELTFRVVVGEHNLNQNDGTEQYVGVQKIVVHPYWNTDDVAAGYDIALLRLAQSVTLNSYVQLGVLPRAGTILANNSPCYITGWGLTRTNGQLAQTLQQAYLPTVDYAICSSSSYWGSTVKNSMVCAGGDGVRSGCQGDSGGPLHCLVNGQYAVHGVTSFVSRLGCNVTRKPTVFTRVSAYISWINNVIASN", "assay": "Specificity assay, porcine pancreatic elastase", "format": "biochemical", "settings": "read-out: PPE activity in the specificity assays (IC50)", "procedure": "The specificities of compounds of the present disclosure were determined against a variety of serine proteases: human neutrophil elastase (HNE), porcine pancreatic elastase (PPE) and human pancreatic chymotrypsin and one cysteine protease: human liver cathepsin B. In all cases, a 96-well plate format protocol using colorimetric p-nitroaniline (pNA) substrate or fluorometric Amino-Methyl-Coumarin (AMC) substrate, specific for each enzyme was used as described previously (PCT Patent Application No. WO 00/09543) with some modifications. All enzymes were purchased from Sigma or EMDbiosciences while the substrates were from Bachem.\nEach pNA assay included a 2 hours enzyme-inhibitor pre-incubation at room temperature followed by addition of substrate and hydrolysis to ˜15% conversion as measured on a Spectramax Pro microplate reader. The cathepsin B assay was initiated by adding substrate to a 10 min enzyme-inhibitor pre-incubation at room temperature, and the assay plate measured immediately using the Cytofluor Series 4000. Compound concentrations varied from 100 to 0.4 μM depending on their potency. […]\nThe percentage of inhibition was calculated using the formula: [1−((UVinh−UVblank)/(UVctl−UVblank))]×100 […]"}, "[2]": {"tested_on": "HCV replicon in HUH-7 cells", "assay": "HCV replicon FRET assay", "format": "cell-based, Hepatitis C virus (strain 1b)", "settings": "Hepatitis C virus", "summary_of_the_method": "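HUH-7 cells carrying a genotype 1b subgenomic neo replicon (NS3–NS5B) treated 4 days at 37 °C with compound in 0.5% DMSO final. CC50 from alamarBlue fluorescence after 4 h; cells then lysed with FRET protease substrate at 10 μM final and read kinetically at 340/490 nm to give EC50.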"}}, "note": "Where two headings read alike, the source gives them in different places.", "data": [{"smiles": "C=C[C@@H]1C[C@]1(NC(=O)[C@@H]1C[C@@H](OC(=O)N2Cc3cccc(F)c3C2)CN1C(=O)[C@@H](OC(=O)NC(C)(C)C)C(C)(C)C)C(=O)NS(=O)(=O)C1CC1", "note": "[Example 56Compound 56]", "values": [{"measurement": "IC50", "setting": "[1]", "result": "> 100000", "unit": "nM"}, {"measurement": "EC50", "setting": "[2]; Huh-7, 96 h, replicon FRET assay, HUH-7, 4 days, read-out: EC50 value in the replicon FRET assay", "result": 742, "unit": "nM"}, {"measurement": "EC50", "setting": "[2]; Huh-7, read-out: EC50 Range, HCV replicon cell assay, Table 1", "result": "500 to 5000", "unit": "nM"}]}]}
